# Test results published in US20080108706A1, “Chemical resection of pancreas” (priority 1999, published 2008).
# Columns and labels:
# [1] = Non-tumor-bearing toxicity controls, same regimens; type: in vivo
# [2] = tested on: Pancreatic Ductal Adenocarcinoma #03; experiment: Evaluation against early stage pancreatic ductal adenocarcinoma #03 in BDF mice; type: in vivo
# Excerpt: Male BDF mice (12 weeks old, weight approximately 28.9 g) were implanted with the pancreatic ductal cell carcinoma #03 3 days before beginning treatment with (HO)2DEHSPM.
# [3] = tested on: pancreatic native polyamine pools; experiment: Tissue drug and native polyamine levels (pancreas, liver) in treated dogs; type: in vivo, beagles
# Excerpt: The two dogs (#490 and 494) were fed a prescription canned and dry dog food and were supplemented with Viokase, a pancreatic enzyme preparation, by mixing three tablets with food or by oral administration immediately before each feeding. The dogs were maintained on this regimen for approximately three weeks. During this time, their weight and blood chemistries were closely monitored. The Viokase supplementation was then stopped and the same parameters were again evaluated. One week after the Viokase administration had ceased, the animals were euthanized and tissues were taken for histology and for the determination of tissue polyamine levels.
# As the pancreatic insufficiency side-effect that was observed after the administration of the (R,R)—(HO)2DEHSPM to the beagles may have been related to the (R,R)-chirality of the molecule, the (S,S)-enantiomer was synthesized and was compared in a head-to-head fashion with the (R,R)-enantiomer. To perform this experiment, five male beagles approximately 6-8 months of age were obtained from Harlan Sprague Dawley. There were provided with food and water ad libitum and were allowed to acclimate to their new surroundings for two weeks. The animals were weighed prior to starting drug administration and were weighed once per week during the drug dosing period. A CBC and chemistry panel and a Holter monitor were performed once per week. In addition to the usual tests, additional pancreatic function-specific tests were also performed. These additional evaluations included a fecal trypsin test, examination of the feces for fecal fat and serum trypsin-like immunoreactivity determinations. It was hoped that these signs of pancreatic insufficiency would only appear in the animals given the (R,R)-enantiomer and would not be observed in the dogs that were given the (S,S)-molecule. The pancreatic insufficiency may not become evident until approximately 7-8 weeks post-drug. At the conclusion of the experiment, all of the animals were sacrificed and the histology and tissue polyamine levels were determined.
# • 1. Dogs #468 and 500 were given (R,R)—(HO)2DEHSPM subcutaneously twice daily for 13 days. • 2. They were fed Purina Dog Chow ad libitum and given free access to water. • 3. Polyamine levels in the pancreas were also analyzed at several time points post-drug. • 4. At the start of the experiment, dog #468 weighed 14.4 kg and dog #500 weighed 12.8 kg. The latter animal's weight never exceeded 13.2 kg. At the end of the drug dosing period, dog #468 weighed 13.0 kg, a loss of 1.4 kg; dog #500 weighed 13.2 kg, a gain of 0.4 kg. • 5. […] The pancreatic native polyamine pools (most especially SPD) were markedly diminished compared to untreated control tissue: [SPM]control=3,985 μm v. [SPM10-days post-treatment=2,548 μm (64% of control) [SPD]control=2,820 μm v [SPD]10-days post-treatment=721 μm (25.6% of control) • 6. Dog #468 was bright, alert and responsive until day thirteen of drug administration. […] The dog was fed boiled chicken and rice, as well as Nutrical (a caloric supplement) and cat food and was slowly weaned back to regular dog food. Frank and/or occult blood was found in the dog's stool until about 17-days post-drug. • 7. Dog #500 was bright, alert and responsive throughout the experiment. […] However, stool consistency had normalized by one week post-drug. • 8. […] The inability to digest fats was confirmed when this test was repeated and the fatty meal was supplemented with Viokase (a pancreatic enzyme supplement). […] (2.15 mg/kg every 12 hours) for 13 days • Route: subcutaneously • 1. Dogs #440 and 476 were given (S,S)— (HO)2DEHSPM subcutaneously twice daily for 13 days. • […]. They were fed Purina Dog Chow ad libitum and given free access to water. • 3. At the start of the experiment, dog #440 weighed 11.8 kg.
# Two animals were also treated with DEHSPM at a dose equimolar to the (HO)2DEHSPM dosage and sacrificed at 1- and 75-days after the final treatment. […]
# pancreas = experiment: Pancreas anatomy and function in DEHSPM-treated animals; type: in vivo; details: equimolar dose
# Experimental: Two animals were also treated with DEHSPM at a dose equimolar to the (HO)2DEHSPM dosage and sacrificed at 1- and 75-days after the final treatment. […] At 1-day post-treatment, the total amount of drug: (parent+metabolites)1-day post-treatment=951 μm. […] At 75-days post-treatment, a substantial amount of DEHSPM remains in the pancreas: (parent+metabolites)75-days post-treatment=595 μm.
# The nearly normal polyamine pools are mirrored by the anatomy.
# [4] = group 3, NTB, IV QD 3, 4, 6-9, 14, 17, 18, total dosage 240 mg/kg
# [5] = group 3, NTB, total dosage 240 mg/kg IV
# [6] = group 5, NTB, IV QD 3-18, total dosage 205 mg/kg
# [7] = group 5, NTB, total dosage 205 mg/kg IV
# [8] = group 7, NTB, IV QD 3-18, total dosage 102.5 mg/kg
# [9] = group 7, NTB, total dosage 102.5 mg/kg IV
# [10] = group 2, tumor-bearing, IV QD 3, 4, 6-9, 14, 17, 18, total dosage 240 mg/kg
# [11] = group 2, tumor-bearing, total dosage 240 mg/kg IV
# [12] = group 4, tumor-bearing, IV QD 3-18, total dosage 205 mg/kg
# [13] = group 4, tumor-bearing, total dosage 205 mg/kg IV
# [14] = group 6, tumor-bearing, total dosage 102.5 mg/kg IV
# [15] = 1-day post-treatment, equimolar dose
# [16] = 75-days post-treatment, equimolar dose
smiles,measurement,setting,value
"CCNCCCCNCCCCNCCCCNCC [DEHSPM, reference compound]",Mean Body Wt. Loss,[1]; [4],−8.5 g/mouse
same,Percent Body Wt. Loss,[1]; [4],−30.0%
same,Day of Wt. Loss Nadir,[1]; [5],35 days
same,Drug Deaths (days of death),[1]; [5],0/2
same,Mean Body Wt. Loss,[1]; [6],−7.5 g/mouse
same,Percent Body Wt. Loss,[1]; [6],−26.0%
same,Day of Wt. Loss Nadir,[1]; [7],35 days
same,Drug Deaths (days of death),[1]; [7],0/2
same,Mean Body Wt. Loss,[1]; [8],−1.0 g/mouse
same,Percent Body Wt. Loss,[1]; [8],−3.0%
same,Day of Wt. Loss Nadir,[1]; [9],23 days
same,Drug Deaths (days of death),[1]; [9],0/2
same,Mean Body Wt. Loss,[2]; [10],−11.2 g/mouse
same,Percent Body Wt. Loss,[2]; [10],−38.0%
same,Day of Wt. Loss Nadir,[2]; [11],35 days
same,Drug Deaths (days of death),[2]; [11],0/5
same,Mean Body Wt. Loss,[2]; [12],−8.6 g/mouse
same,Percent Body Wt. Loss,[2]; [12],−29.0%
same,Day of Wt. Loss Nadir,[2]; [13],35 days
same,Drug Deaths (days of death),[2]; [13],0/5
same,Mean Body Wt. Loss,"[2]; group 6, tumor-bearing, IV QD 3-18, total dosage 102.5 mg/kg",−0.4 g/mouse
same,Day of Wt. Loss Nadir,[2]; [14],7 days
same,Drug Deaths (days of death),[2]; [14],0/5
same,total amount of drug (parent+metabolites) in pancreas,"[3]; 1-day post-treatment, dose equimolar to the (HO)2DEHSPM dosage",951 μm
same,[SPD] in pancreas,[3]; [15],863 μm
same,"[SPD] in pancreas, % of control",[3]; [15],30.6 % of control
same,[SPM] in pancreas,[3]; [15],"2,770 μm"
same,"[SPM] in pancreas, % of control",[3]; [15],69.5 % of control
same,PUT in pancreas,[3]; [16],60 μm
same,[SPD] in pancreas,[3]; [16],"1,572 μm"
same,"[SPD] in pancreas, % of control",[3]; [16],55.7 % of control
same,[SPM] in pancreas,[3]; [16],"3,162 μm"
same,"[SPM] in pancreas, % of control",[3]; [16],79.3 % of control
same,drug (parent+metabolites) in pancreas,[3]; [16],595 μm
same,pancreas anatomy,pancreas; 75-days post-treatment,essentially normal macroscopically and microscopically
same,exocrine and endocrine pancreatic functions,pancreas,appeared normal
